Several values for one entry are separate records, joined by “and”; a condition that tells them apart may be missing. Identical values can stand only once. Inconclusive results and toxic doses are left out. Rule for the calls: active = survival T/C of 150% or more; inactive = T/C below 125% in these data.
System: CD2F1 mice, L1210 leukemia ip, survival T/C
Assay: NCI In Vivo Anticancer Drug Screen. Data for tumor model L1210 Leukemia (intraperitoneal) in CD2F1 (CDF1) mice
Details: higher = longer survival
Summary of the method: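 Mice carrying a transplanted tumor received test compound or vehicle alone. The value is the measurement in the treated group divided by that in the vehicle-treated control group.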

[1] = endpoint: mean survival time, dose: 100.0 mg/kg/injection, schedule: Q04DX003 (ip), vehicle: Klucel (hydroxypropylcellulose) (HPC)
[2] = endpoint: mean survival time, dose: 12.5 mg/kg/injection, schedule: Q01DX009 (ip), vehicle: saline with Tween-80
[3] = endpoint: mean survival time, dose: 25.0 mg/kg/injection, schedule: Q01DX009 (ip), vehicle: saline with Tween-80
[4] = endpoint: mean survival time, dose: 100.0 mg/kg/injection, schedule: Q01DX001 (ip), vehicle: saline with Tween-80
[5] = endpoint: mean survival time, dose: 100.0 mg/kg/injection, schedule: Q01DX009 (ip), vehicle: saline with Tween-80
[6] = endpoint: mean survival time, dose: 200.0 mg/kg/injection, schedule: Q01DX001 (ip), vehicle: saline with Tween-80
[7] = endpoint: mean survival time, dose: 100.0 mg/kg/injection, schedule: Q04DX003 (ip), vehicle: saline with Tween-80
[8] = endpoint: mean survival time, dose: 200.0 mg/kg/injection, schedule: Q04DX003 (ip), vehicle: saline with Tween-80
[9] = endpoint: mean survival time, dose: 400.0 mg/kg/injection, schedule: Q04DX003 (ip), vehicle: saline with Tween-80
[10] = endpoint: mean survival time, dose: 100.0 mg/kg/injection, schedule: Q01DX001 (ip), vehicle: other
[11] = endpoint: mean survival time, dose: 200.0 mg/kg/injection, schedule: Q01DX009 (ip), vehicle: saline with Tween-80
[12] = endpoint: mean survival time, dose: 400.0 mg/kg/injection, schedule: Q01DX009 (ip), vehicle: saline with Tween-80
[13] = endpoint: mean survival time, dose: 50.0 mg/kg/injection, schedule: Q01DX009 (ip), vehicle: saline with Tween-80
[14] = endpoint: mean survival time, dose: 200.0 mg/kg/injection, schedule: Q04DX003 (ip), vehicle: Klucel (hydroxypropylcellulose) (HPC)
[15] = endpoint: mean survival time, dose: 400.0 mg/kg/injection, schedule: Q04DX003 (ip), vehicle: Klucel (hydroxypropylcellulose) (HPC)

Measured: T/C

C(#Cc1ccccn1)c1ccccn1.[Pt].c1ccc([PH+](c2ccccc2)c2ccccc2)cc1.c1ccc([PH+](c2ccccc2)c2ccccc2)cc1
inactive: endpoint: median survival time, dose: 3.13 mg/kg/injection, schedule: Q04DX003 (ip), vehicle: distilled water + Tween-80 104 % of control | endpoint: median survival time, dose: 6.25 mg/kg/injection, schedule: Q04DX003 (ip), vehicle: distilled water + Tween-80 105 % of control | endpoint: median survival time, dose: 12.5 mg/kg/injection, schedule: Q04DX003 (ip), vehicle: distilled water + Tween-80 100 % of control | endpoint: median survival time, dose: 25.0 mg/kg/injection, schedule: Q04DX003 (ip), vehicle: distilled water + Tween-80 97 % of control | endpoint: median survival time, dose: 50.0 mg/kg/injection, schedule: Q04DX003 (ip), vehicle: distilled water + Tween-80 96 % of control | endpoint: median survival time, dose: 100.0 mg/kg/injection, schedule: Q04DX003 (ip), vehicle: distilled water + Tween-80 94 % of control

CNC(=S)N/N=C/c1c(Cl)n(-c2ccccc2)c2c(/C=N/NC(=S)NC)cccc12
inactive: endpoint: mean survival time, dose: 25.0 mg/kg/injection, schedule: Q04DX003 (ip), vehicle: Klucel (hydroxypropylcellulose) (HPC) 96 % of control | endpoint: mean survival time, dose: 50.0 mg/kg/injection, schedule: Q04DX003 (ip), vehicle: Klucel (hydroxypropylcellulose) (HPC) 93 % of control | [1] 89 % of control

COC(=O)c1cc2cc3c(c(O)c2c(=O)o1)OC1(Cc2c(O)c4c(c(O)c2O1)C(=O)C(OC)CC4=O)CC3O (stereo not drawn)
inactive: [2] 92 % of control | [3] 94 % of control | [4] 91 % of control | [5] 101 % of control | [6] 96 % of control

c1ccc2c3c([nH]c2c1)CCCCC3
inactive: [7] 92 % of control | [8] 95 % of control | [9] 94 % of control

O=c1cc(Cl)c(=O)[nH][nH]1
inactive: [10] 104 % of control | [5] 92 % of control | [7] 94 % of control | endpoint: mean survival time, dose: 200.0 mg/kg/injection, schedule: Q01DX001 (ip), vehicle: other 97 % of control | [11] 94 % of control | [8] 94 % of control | endpoint: mean survival time, dose: 400.0 mg/kg/injection, schedule: Q01DX001 (ip), vehicle: other 98 % of control | [12] 97 % of control | [9] 96 % of control

CC(=O)OCC(C)CCC1OC2CC3C4CCC5CC(OC(C)=O)CCC5(C)C4CCC3(C)C2C1C (stereo not drawn)
inactive: [4] 100 % of control | [6] 101 % of control | endpoint: mean survival time, dose: 400.0 mg/kg/injection, schedule: Q01DX001 (ip), vehicle: saline with Tween-80 94 % of control

CCOC(=O)Cc1c(C)[nH]c2c(C)ccc(C)c12
inactive: [10] 95 % of control

OCC1OC(n2cnc3c([Se]Cc4ccccn4)ncnc32)C(O)C1O (stereo not drawn)
inactive: endpoint: mean survival time, dose: 3.12 mg/kg/injection, schedule: Q01DX009 (ip), vehicle: saline 102 % of control | endpoint: mean survival time, dose: 6.25 mg/kg/injection, schedule: Q01DX009 (ip), vehicle: saline 113 % of control | endpoint: mean survival time, dose: 12.5 mg/kg/injection, schedule: Q01DX005 (ip), vehicle: saline 100 % of control | endpoint: mean survival time, dose: 12.5 mg/kg/injection, schedule: Q01DX009 (ip), vehicle: saline 111 % of control

CC(=O)Nc1ccc(Br)c(NC(C)=O)n1
inactive: [7] 95 % of control | [8] 98 % of control | [9] 104 % of control

O=c1c2nc(-c3ccccc3)oc2ncn1C1OC(CO)C(O)C1O (stereo not drawn)
inactive: endpoint: mean survival time, dose: 100.0 mg/kg/injection, schedule: Q01DX005 (ip), vehicle: saline 100 % of control | endpoint: mean survival time, dose: 200.0 mg/kg/injection, schedule: Q01DX005 (ip), vehicle: saline 98 % of control

COc1cccc(C(=O)c2ccncc2C)c1OC
inactive: endpoint: mean survival time, dose: 12.5 mg/kg/injection, schedule: Q01DX009 (ip), vehicle: water 89 % of control | endpoint: mean survival time, dose: 25.0 mg/kg/injection, schedule: Q01DX009 (ip), vehicle: water 93 % of control | endpoint: mean survival time, dose: 50.0 mg/kg/injection, schedule: Q01DX009 (ip), vehicle: water 93 % of control | endpoint: mean survival time, dose: 100.0 mg/kg/injection, schedule: Q01DX009 (ip), vehicle: water 93 % of control | endpoint: mean survival time, dose: 200.0 mg/kg/injection, schedule: Q01DX009 (ip), vehicle: water 96 % of control

Nc1ncnc2c1c1c(=S)[nH]c(=O)[nH]c1n2C1OC(CO)C(O)C1O (stereo not drawn)
inactive: endpoint: mean survival time, dose: 25.0 mg/kg/injection, schedule: Q01DX005 (ip), vehicle: distilled water + Tween-80 101 % of control | endpoint: mean survival time, dose: 50.0 mg/kg/injection, schedule: Q01DX005 (ip), vehicle: distilled water + Tween-80 106 % of control | endpoint: mean survival time, dose: 100.0 mg/kg/injection, schedule: Q01DX005 (ip), vehicle: distilled water + Tween-80 104 % of control

C[N+](C)(C)CCCCC[N+](C)(C)C
inactive: endpoint: mean survival time, dose: 6.25 mg/kg/injection, schedule: Q01DX009 (ip), vehicle: saline sonified 93 % of control | endpoint: mean survival time, dose: 6.25 mg/kg/injection, schedule: Q04DX003 (ip), vehicle: saline 103 % of control | endpoint: mean survival time, dose: 12.5 mg/kg/injection, schedule: Q01DX009 (ip), vehicle: saline sonified 90 % of control | endpoint: mean survival time, dose: 12.5 mg/kg/injection, schedule: Q04DX003 (ip), vehicle: saline 95 % of control | endpoint: mean survival time, dose: 25.0 mg/kg/injection, schedule: Q01DX009 (ip), vehicle: saline sonified 93 % of control | [3] 100 % of control | endpoint: mean survival time, dose: 25.0 mg/kg/injection, schedule: Q04DX003 (ip), vehicle: saline 101 % of control | [13] 108 % of control | [5] 103 % of control | [7] 86 % of control

CCOc1ccc(/C=C/c2ccc3ccccc3[n+]2C)cc1OCC
inactive: endpoint: mean survival time, dose: 25.0 mg/kg/injection, schedule: Q01DX001 (ip), vehicle: saline with Tween-80 102 % of control

O=C1C=C(C2CCCCC2)C(=O)c2ccccc21
inactive: [5] 88 % of control | [7] 98 % of control | [11] 91 % of control | [8] 92 % of control | [12] 95 % of control | [9] 95 % of control

ClCCCC1(CCCCl)OCCO1
inactive: endpoint: mean survival time, dose: 100.0 mg/kg/injection, schedule: Q04DX002 (ip), vehicle: saline with Tween-80 101 % of control | endpoint: mean survival time, dose: 200.0 mg/kg/injection, schedule: Q04DX002 (ip), vehicle: saline with Tween-80 97 % of control | endpoint: mean survival time, dose: 400.0 mg/kg/injection, schedule: Q04DX002 (ip), vehicle: saline with Tween-80 104 % of control

CN(C)CCCN1c2ccc(O)cc2Sc2ccc(Cl)cc21
inactive: [3] 90 % of control | [13] 96 % of control | [5] 107 % of control

ClC1CC[N-]CC1.ClC1CC[N-]CC1.O=C(O)CC(=O)O.[Pt+2]
inactive: [2] 96 % of control | [3] 94 % of control | [13] 102 % of control | [5] 104 % of control | [11] 96 % of control

C1COC2(CCC3C2C2CCC4(OCCO4)C32)O1 (stereo not drawn)
inactive: [7] 103 % of control | [8] 101 % of control | [9] 116 % of control

OCC1OC(n2cnc3c(NO)ncnc32)C(O)C1O (stereo not drawn)
inactive: endpoint: mean survival time, dose: 12.5 mg/kg/injection, schedule: Q01DX009 (ip), vehicle: Klucel (hydroxypropylcellulose) (HPC) 87 % of control and 103 % of control | endpoint: mean survival time, dose: 25.0 mg/kg/injection, schedule: Q01DX009 (ip), vehicle: Klucel (hydroxypropylcellulose) (HPC) 88 % of control and 104 % of control | endpoint: mean survival time, dose: 50.0 mg/kg/injection, schedule: Q01DX009 (ip), vehicle: Klucel (hydroxypropylcellulose) (HPC) 92 % of control and 104 % of control | endpoint: mean survival time, dose: 100.0 mg/kg/injection, schedule: Q01DX009 (ip), vehicle: Klucel (hydroxypropylcellulose) (HPC) 92 % of control and 104 % of control | endpoint: mean survival time, dose: 200.0 mg/kg/injection, schedule: Q01DX009 (ip), vehicle: Klucel (hydroxypropylcellulose) (HPC) 92 % of control and 104 % of control | endpoint: mean survival time, dose: 400.0 mg/kg/injection, schedule: Q01DX009 (ip), vehicle: Klucel (hydroxypropylcellulose) (HPC) 95 % of control and 107 % of control

Nc1ncnc2nc(-c3ccc(C(=O)c4cccc([N+](=O)[O-])c4)cc3)[nH]c12
inactive: [1] 108 % of control | [14] 102 % of control | [15] 100 % of control

O=C(Nc1cccc2ccccc12)N(c1ccccc1)c1ccccc1
inactive: endpoint: mean survival time, dose: 100.0 mg/kg/injection, schedule: Q01DX001 (ip), vehicle: saline 105 % of control | endpoint: mean survival time, dose: 200.0 mg/kg/injection, schedule: Q01DX001 (ip), vehicle: saline 96 % of control | endpoint: mean survival time, dose: 400.0 mg/kg/injection, schedule: Q01DX001 (ip), vehicle: saline 94 % of control

Cc1ccc(/C=C2\CCOC2=O)cc1
inactive: [1] 102 % of control | [14] 96 % of control | [15] 96 % of control

CCCCCCCCCCC(=O)N1CCOCC1
inactive: [13] 87 % of control | [5] 96 % of control

CCCCC(C(=O)OCC)C(=O)c1ccccc1 (stereo not drawn)
inactive: [7] 96 % of control | [8] 94 % of control | [9] 97 % of control

From PubChem BioAssay AID256 (DTP/NCI, 2004)
